Laboratory results as given in patent US20240122945A1, “USE OF NEUROACTIVE STEROIDS FOR TREATMENT OF SEXUAL DYSFUNCTION” (Sage Therapeutics, Inc., priority 2021, published 2024).

Tested on: Patients With Major Depressive Disorder
Experiment: Phase 3 MOUNTAIN study: sexual functioning by Changes in Sexual Functioning Questionnaire-14 (CSFQ-14), post-hoc analysis
Format: in vivo, human
Details: for Odds Ratio for Sexual Dysfunction (Compound (1) relative to placebo): GEE model
Experimental: Results from the multicenter, double-blind, randomized, placebo-controlled Phase 3 MOUNTAIN trial (NCT03672175) evaluating the efficacy, safety, and tolerability of 14-day treatment with 20 mg or 30 mg of Compound (1) compared with placebo (PBO) have been previously presented (Clayton, A. H. Presented at SOBP 2020 Virtual Meeting).
This analysis assessed the effect of 30 mg of Compound (1) treatment compared with PBO on sexual function, as measured by the Changes in Sexual Functioning Questionnaire-14 (CSFQ-14), in the MOUNTAIN trial.
Adult outpatients (18-65 years; n=581) with MDD (HAMD-17 total score≥22 and MADRS total score≥32) were randomized 1:1:1 to Compound (1) 20 mg (data not shown), Compound (1) 30 mg, or PBO, once-nightly for 2 weeks, with follow-up through Day 42 (see FIG. 1 for Study Design). Standard of care antidepressants that had been taken at the same dose for ≥60 days prior to Day 1 of the trial were permitted. Exclusion criteria included attempted suicide associated with the current depressive episode; treatment-resistant depression, and medical history of bipolar disorder, schizophrenia, and/or schizoaffective disorder.
Exploratory, post-hoc analyses included evaluation of sexual functioning using the 14-item; self-report CSFQ-14 at baseline, Day 15, 28, and 42.
Male and female sexual functioning was evaluated as an exploratory endpoint with the validated, 14-item, patient-reported CSFQ-14 scores at baseline, Day 15, Day 28, and Day 42. CSFQ-14 also has 5 sub-scales that measure pleasure, desire/frequency, desire/interest, arousal/excitement, and orgasm/completion, which were also evaluated. Sexual dysfunction was defined as a CSFQ-14TS of ≤41 for females and ≤47 for males. Mixed model for repeated measure and generalized estimating equation were used for analysis on patients with a baseline HAMD-17 total score≥24 (n=323).
The model used was a generalized estimating equation (GEE) for binary response model, with factors for treatment (Compound (1) 30 mg or placebo), baseline CSFQ-14 total score, antidepressant use at baseline (Yes or No), assessment time point, and time point-by-treatment interaction with exchangeable covariance structure.
Odds ratio is the estimate of the odds of having CSFQ sexual dysfunction for subjects treated with Compound (1) relative to that for subjects treated with placebo.

C[C@@]1(O)CC[C@H]2[C@H](CC[C@@H]3[C@@H]2CC[C@]2(C)[C@@H](C(=O)Cn4cc(C#N)cn4)CC[C@@H]32)C1 [Compound (1), 1-(2-((3R,5R,8R,9R,10S,13S,14S,17S)-3-hydroxy-3,13-dimethylhexadecahydro-1H-cyclopenta[a]phenanthren-17-yl)-2-oxoethyl)-1H-pyrazole-4-carbonitrile]
difference vs PBO in percentage of male patients with sexual dysfunction across individual CSFQ-14 subscales (30 mg, Days 15, 28, 42, exception: arousal/excitement at Day 42 (FIG. 5)): no significant differences | difference vs PBO in percentage of female patients with sexual dysfunction across individual CSFQ-14 subscales (30 mg, Days 15, 28, 42, exception: desire/frequency at Day 15 and orgasm/completion at Day 28 (FIG. 4)): no significant differences | difference vs PBO in percentage of patients with sexual dysfunction in the individual CSFQ-14 subscales (30 mg, all patients): no significant differences | treatment-emergent sexual dysfunction (30 mg, overall conclusion): not associated with treatment-emergent sexual dysfunction | impairment of sexual function compared to placebo during the trial (30 mg, through Day 42): No impairment of sexual function | Odds Ratio for Sexual Dysfunction (Compound (1) relative to placebo) (Day 15, Men, 30 mg, CSFQ total score<=47 = sexual dysfunction): 0.72 | Odds Ratio for Sexual Dysfunction (Compound (1) relative to placebo) (Day 15, Women, 30 mg, CSFQ total score<=41 = sexual dysfunction): 1.00 | Odds Ratio for Sexual Dysfunction (Compound (1) relative to placebo) (Day 28, Men, 30 mg, CSFQ total score<=47 = sexual dysfunction): 1.07 | Odds Ratio for Sexual Dysfunction (Compound (1) relative to placebo) (Day 28, Women, 30 mg, CSFQ total score<=41 = sexual dysfunction): 1.01 | percentage of all patients with sexual dysfunction as assessed by CSFQ-14TS thresholds (Day 42 (181/272), from 82.4% (266/323) at baseline, Compound (1) 30 mg- and PBO-treated patients together): 66.5% | Odds Ratio for Sexual Dysfunction (Compound (1) relative to placebo) (Day 42, Men, 30 mg, CSFQ total score<=47 = sexual dysfunction): 0.88 | Odds Ratio for Sexual Dysfunction (Compound (1) relative to placebo) (Day 42, Women, 30 mg, CSFQ total score<=41 = sexual dysfunction): 0.91
